Patent publication US9066977B2, “Method of utilization of combination of benzophenone derivative or salt thereof and immunosuppressing agent, and pharmaceutical composition comprising these components” (TOYAMA CHEMICAL CO., LTD., priority 2008, dated 2015)

How the values were obtained:
[1] = system: mouse type II collagen-induced arthritis; test: Combined use of compound A and dexamethasone on mouse type II collagen-induced arthritis (Test Example 2); type: in vivo; settings: male DBA/1J mice, day following final administration
Description: Eight-week-old male DBA/1J mice (8-10 mice per group; Charles River Laboratories Japan) were used. The induction of mouse type II collagen arthritis was conducted by the method according to Test Example 1.
Compound A was dissolved in a 2-fold molar amount of sodium hydroxide solution, and a 3-fold weight of polyvinylpyrrolidone was then added to the solution, followed by dilution with distilled water. The concentrations of compound A in compound A (1 mg/kg and 10 mg/kg)-dosing solutions were adjusted to be 0.1 mg/mL and 1.0 mg/mL. The concentration of compound A in a compound A (1 mg/kg)-dosing solution in combined administration was adjusted to be 0.2 mg/mL. Dexamethasone was suspended in polyvinylpyrrolidone solution. The concentration of dexamethasone in dexamethasone (0.025 mg/kg)-dosing solution was adjusted to be 0.0025 mg/mL. The concentration of dexamethasone in dexamethasone (0.025 mg/kg)-dosing solution in combined administration was adjusted to be 0.005 mg/mL. Each dosing solution was orally administered to the mice.
To control group, polyvinylpyrrolidone solution was orally administered.
After dividing into groups, and the second immunization, compound A and dexamethasone were administered once a day for 14 days.
The evaluation to mouse arthritis was conducted by the method according to Test Example 1.

[2] = system: mouse type II collagen-induced arthritis; test: Combined use of compound A and methotrexate on mouse type II collagen-induced arthritis (Test Example 1); type: in vivo; settings: male DBA/1J mice, day following final administration
Description: Eight-week-old male DBA/1J mice (9 or 10 mice per group; Charles River Laboratories Japan) were used. A 2 mg/mL bovine type II collagen dissolved in a 0.1 mol/L acetic acid solution (Koken Co., Ltd.) was mixed with an equal volume of Freund's complete adjuvant (BD Diagnostic Systems) to prepare an emulsion. The emulsion (0.2 mL) was intradermally injected at the hip of each mouse. Twenty-one days after the primary immunization, the same treatment was carried out (secondary immunization), so that type II collagen arthritis was induced.
Compound A was dissolved in a 2-fold molar amount of sodium hydroxide solution, and a 3-fold weight of polyvinylpyrrolidone was then added to the solution, followed by dilution with distilled water. The concentration of compound A in a compound A (1 mg/kg)-dosing solution was adjusted to be 0.1 mg/mL. Methotrexate was suspended in 0.5% methylcellulose solution. The concentration of methotrexate in methotrexate (0.5 mg/kg)-dosing solution was adjusted to be 0.05 mg/mL. Each dosing solution was orally administered to the mice.
To control group, polyvinylpyrrolidone solution and 0.5% methylcellulose solution were orally administered. […]
The knuckle portion and the articulations of wrist and tarsus portions of the four paws of each mouse were evaluated using the following 4 scores. […]

[3] = Compound A 1 mg/kg orally once a day for 14 days

O=C(O)CCc1cc(C(=O)c2ccc(OC3CCCC3)cc2O)ccc1OCc1ccc2c(O)noc2c1 [Compound A, 3-(5-(4-(cyclopentyloxy)-2-hydroxybenzoyl)-2-((3-hydroxy-1,2-benzisoxazol-6-yl)methoxy)phenyl)propionic acid]
Arthritis inhibition rate (%) [1, 3]: 14% | Arthritis inhibition rate (%) ([1]; Compound A 10 mg/kg orally once a day for 14 days): 58% | Arthritis inhibition rate (%) [2, 3]: 19%

C[C@@H]1C[C@H]2[C@@H]3CCC4=CC(=O)C=C[C@]4(C)[C@@]3(F)[C@@H](O)C[C@]2(C)[C@@]1(O)C(=O)CO [Dexamethasone, reference compound]
Arthritis inhibition rate (%) ([1]; Dexamethasone 0.025 mg/kg orally once a day for 14 days): 30%

CN(Cc1cnc2nc(N)nc(N)c2n1)c1ccc(C(=O)N[C@@H](CCC(=O)O)C(=O)O)cc1 [Methotrexate, reference compound]
Arthritis inhibition rate (%) ([2]; Methotrexate 0.5 mg/kg orally once a day for 14 days): 15%
